Experimental findings from ChEMBL document CHEMBL5321275, “Discovery, Optimization, and Evaluation of Novel N-(Benzimidazol-5-yl)-1,3,4-thiadiazol-2-amine Analogues as Potent STAT3 Inhibitors for Cancer Treatment” (J Med Chem, 2023) are described below.

Data set [1] deals with DU-145. Kind of data set: Antiproliferative activity against human DU-145 cells assessed as inhibition of cell growth at 10 uM measured after 96 hrs by MTT assay relative to control. Format: functional.
In data set [2] the test system is MDA-MB-231. Nature of the data set: Antiproliferative activity against human MDA-MB-231 cells assessed as inhibition of cell growth measured after 96 hrs by MTT assay. The note with it: MDA-MB-231, 96 h. Format: functional, cell-based. On the technique in general: Tetrazolium dyes change colour on reduction, which living cells bring about.
Data set [3] concerns DU-145. Nature of the data set: Antiproliferative activity against human DU-145 cells assessed as inhibition of cell growth measured after 96 hrs by MTT assay. The data set is classed as functional, cell-based. The note with it: DU-145, 96 h.
Data set [4] is described as follows: Solubility of compound in water incubated for 10 mins. The data set is classed as physicochemical.
In data set [5] the test system is MDA-MB-231. Nature of the data set: Antiproliferative activity against human MDA-MB-231 cells assessed as inhibition of cell growth at 10 uM measured after 96 hrs by MTT assay relative to control. Format: functional.
A short description of data set [6]: Inhibition of IL-6/JAK/STAT3 signalling pathway in HEK-Blue IL-6 cells incubated for 16 hrs by QUANTI-blue assay. The data set is classed as cell-based. The note with it: Homo sapiens, HEK-Blue IL-6, 16 h.
Data set [7] concerns HEK-Blue IL-6. Kind of data set: Inhibition of IL-6/JAK/STAT3 signalling pathway in HEK-Blue IL-6 cells at 10 uM incubated for 16 hrs by QUANTI-blue assay relative to control. The data set is classed as cell-based. The note with it: Homo sapiens.
The nature of data set [8]: Metabolic stability in human liver microsomes at 10 uM measured after 120 mins in presence of NADPH-GS by HPLC-MS/MS analysis. Format: ADME, Microsome. The note with it: read-out: Stability. (Liver microsomes are a subcellular fraction often used to study metabolism.)
The nature of data set [9]: Metabolic stability in mouse liver microsomes assessed as half life in presence of NADPH/UDPGA. The data set is classed as ADME, Microsome.
A short description of data set [10]: Metabolic stability in mouse liver microsomes assessed as intrinsic clearance in presence of NADPH/UDPGA. Format: ADME, Microsome. The note with it: read-out: CLH.

The term inhibition denotes the change of the read-out against control, counted positive when it falls. The IC50 is the concentration that inhibits the measured activity by half. Broadly, the solubility is how much of the substance goes into solution per volume. As usually defined, the half-life is the time needed for the level to fall by half in the phase considered.

Converted amounts (≈) assume the structure as drawn. Some results are limits rather than exact numbers.

Take `COc1cc(-c2nnc(Nc3cc4nc(-c5ccc(F)cc5)n(C5CC5)c4cc3N3CCN(C)CC3)s2)cc(OC)c1OC`: the inhibition at 10 µM in data set [1] came out at 87.3%; in data set [5], 92.5%. The IC50 in [2] was determined as 0.82 µM; in [3], 1.05 µM; in [6], 4.51 µM. Moreover, the concentration in solution in data set [4] (solubility at 10 min) was 5.95 µg/mL (≈ 9.66 µM). Moreover, the inhibition in data set [7] turned out to be 95.7%. In addition, the remaining at 2 h, 10 µM in data set [8] is 32.5%.
`O=c1ccc2ccc(O)cc2o1` [UMBELLIFERONE]: in data set [9], the half-life stood at 1.54 min. The microsomal CLint in data set [10] is 902 µL/min/mg.
As for `Fc1cc2c(cc1Nc1nnc(-c3cccc(C(F)(F)F)c3)s1)nc(-c1cccc(C(F)(F)F)c1)n2C1CC1`, the results for the inhibition at 10 µM in data set [1] and in data set [5] were -0.72% and 4.54%, respectively. The values for the concentration for half-maximal inhibition (IC50) in data set [2], in data set [3] and in [6] were greater than 10 µM, greater than 10 µM and 1.53 µM, respectively. Also, the inhibition in data set [7] turned out to be 72.8%.
As for `CCCn1c(-c2ccc(F)cc2)nc2cc(Nc3nnc(-c4cc(OC)c(OC)c(OC)c4)s3)c(N3CCN(C)CC3)cc21`, the inhibition at 10 µM amounted to 80.7% in data set [1] and 94.5% in data set [5]. Also, the half-inhibitory concentration (IC50) in data set [2] was found to be 0.8 µM; in data set [3], 4.42 µM; in data set [6] it was 2.38 µM. The inhibition in data set [7] amounted to 108%. In addition, in [8], the remaining at 2 h, 10 µM was 25%.
As for `CCCn1c(-c2ccc(F)cc2)nc2cc(Nc3nnc(-c4cccc(C(F)(F)F)c4)s3)c(N3CCN(C)CC3)cc21`, the inhibition at 10 µM worked out at 55.6% in data set [1] and 90.1% in data set [5]. The IC50 is 6.63 µM in data set [2], 9.73 µM in data set [3] and greater than 10 µM in data set [6]. Further, the inhibition in data set [7] turned out to be 5.21%.
On to `CCCn1c(-c2ccc(F)cc2)nc2cc(Nc3nnc(-c4ccc(C(F)(F)F)cc4)s3)c(N3CCN(C)CC3)cc21`, for which the values for the inhibition at 10 µM in [1] and in data set [5] were 64.6% and 93.8%, respectively. The IC50 was 3.83 µM in [2], 6.73 µM in data set [3] and 3.28 µM in [6]. In data set [7], the inhibition is 90.9%.
As to `CCCCCn1c(-c2ccc(F)cc2)nc2cc(Nc3nnc(-c4ccccc4)s3)c(N3CCN(C)CC3)cc21`, the inhibition at 10 µM is -8.3% in data set [1] and -7.99% in data set [5]. Also, the results for the IC50 in data set [2], in data set [3] and in [6] were greater than 80 µM, greater than 10 µM and 3.96 µM, respectively. The inhibition in data set [7] turned out to be 83.2%.
Take `COc1cc(-c2nnc(Nc3cc4nc(-c5ccc(F)cc5)n(C5CC5)c4cc3F)s2)cc(OC)c1OC`: the inhibition at 10 µM in data set [1] was -10.3%; in [5], -11.5%. In addition, the IC50 in [2] was greater than 10 µM; in [3] it was greater than 10 µM; in [6] it was 1.09 µM. In data set [7], the inhibition turned out to be 83.5%.
On to `CN1CCN(c2cc3c(cc2Nc2nnc(-c4cccc(F)c4)s2)nc(-c2ccc(F)cc2)n3C2CC2)CC1`, for which the inhibition at 10 µM stood at 56.4% in data set [1] and 91.9% in [5]. For the same compound, the IC50 turned out to be 6.47 µM in data set [2], 9.37 µM in [3] and 3.52 µM in data set [6]. The inhibition in data set [7] is 82.1%.
As for `CC(C)Cn1c(-c2ccc(F)cc2)nc2cc(Nc3nnc(-c4ccccc4)s3)c(N3CCN(C)CC3)cc21`, the figures for the inhibition at 10 µM in [1] and in [5] were 26.7% and 62.2%, respectively. Also, the IC50 is 8.55 µM in data set [2], greater than 10 µM in [3] and 3.92 µM in [6]. In addition, the inhibition in data set [7] turned out to be 77.4%.
On to `CCCCn1c(-c2ccc(F)cc2)nc2cc(Nc3nnc(-c4ccccc4)s3)c(N3CCN(C)CC3)cc21`, for which the inhibition at 10 µM in data set [1] is -9.69%; in [5], -14.4%. In addition, the IC50 in data set [2] was greater than 10 µM; in data set [3], greater than 10 µM; in [6], 3.51 µM. In [7], the inhibition stood at 80.7%.
